Results on 1 compound are retold here after US12516022B2, “Derivatives of aryl hydrocarbon receptor agonists” (AZORA THERAPEUTICS, INC., priority 2021, dated 2026).

A word on the EC50: it is the concentration needed to bring the measured effect to its halfway point.

The subject of experiment [1] is dextran sodium sulfate (DSS)-induced acute colitis. Put plainly: DSS-induced acute colitis mouse model, Compound 8 (Example 6). The format is in vivo, C57 BL/6J mice. The note with it: mice, 2 mg/kg/day oral gavage twice daily, 9 day test period. The method, then:
Eight week old female C57 BL/6J mice, around 20 g body weight purchased from Charles River Laboratories were bred in specific pathogen free IVC cages (4 mice in each cage) in a temperature controlled (20±2° C.) room with a 12 hour light-dark cycle. Chow pellets and tap water were available ad libitum. All experimental protocols were approved by the Institutional Animal Care and Use Committee. The mice were acclimated at the animal facility for at least of three days before the experiments.
To generate dextran sodium sulfate (DSS)-induced acute colitis, the mice were induced with 3% DSS (molecular weight 36,000-50,000; MP Biomedicals, Santa Ana, CA, USA) in their drinking water for 7 consecutive days, and then switched to normal water. DSS solution was freshly prepared and changed daily. These mice were euthanized on day 8 (9th day of the experiment).
The mice were divided into groups with eight mice in each group. Mice were dosed with either 2 mg/kg/day Compound 8, twice daily in 200 μL distilled water (pH=7.0) by gavage from Day 0 to Day 9. Mice in the vehicle group were given only 200 μL distilled water by gavage.
Body weight and disease activity index (DAI) soring were recorded daily to assess the colitis. DAI score was the sum of the weight loss score, stool score and bleeding subscores. A blinded scoring system was employed to assess the colitis. […]

For experiment [2], the target named is T1, AhR (Rattus norvegicus, UniProt P41738).
T1 sequence (P41738 10-853): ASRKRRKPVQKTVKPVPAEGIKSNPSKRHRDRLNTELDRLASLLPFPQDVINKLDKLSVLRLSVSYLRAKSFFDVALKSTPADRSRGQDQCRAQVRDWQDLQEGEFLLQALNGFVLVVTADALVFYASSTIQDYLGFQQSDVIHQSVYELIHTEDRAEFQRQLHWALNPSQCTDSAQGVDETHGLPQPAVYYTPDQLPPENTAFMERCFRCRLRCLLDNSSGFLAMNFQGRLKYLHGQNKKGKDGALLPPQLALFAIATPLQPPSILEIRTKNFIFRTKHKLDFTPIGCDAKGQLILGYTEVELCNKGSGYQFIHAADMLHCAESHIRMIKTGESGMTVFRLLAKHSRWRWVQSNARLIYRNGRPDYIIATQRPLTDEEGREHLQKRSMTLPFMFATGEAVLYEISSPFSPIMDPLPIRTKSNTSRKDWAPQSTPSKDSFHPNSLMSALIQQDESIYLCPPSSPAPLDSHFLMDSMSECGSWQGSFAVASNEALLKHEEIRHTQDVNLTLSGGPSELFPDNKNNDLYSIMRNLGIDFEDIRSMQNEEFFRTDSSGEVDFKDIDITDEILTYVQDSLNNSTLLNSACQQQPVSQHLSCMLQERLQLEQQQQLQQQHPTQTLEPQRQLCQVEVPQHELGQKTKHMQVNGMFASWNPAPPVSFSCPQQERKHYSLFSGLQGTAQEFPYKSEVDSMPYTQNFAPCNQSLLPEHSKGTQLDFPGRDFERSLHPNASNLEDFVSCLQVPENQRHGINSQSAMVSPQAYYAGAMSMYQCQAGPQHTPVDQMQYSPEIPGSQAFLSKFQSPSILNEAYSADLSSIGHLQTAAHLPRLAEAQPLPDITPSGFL
The experiment is described as follows: AhR/arnt-luciferase reporter assay in rat H4IIE cells.
Experimental: (§1) TCDD and MeBio were included in the study as positive controls. These were added into cell culture media containing charcoal-stripped fetal bovine serum to produce a 2× stock and then added to the reporter cells. The reporter cells were human Huh7 cells or Rat H4IIE cell lines with the native AhR and an AhR/arnt-Luciferase reporter vector. The final concentration of DM50 was 0.1%. Cells were incubated for 22 hours at 37° C. prior to addition of the luciferase detection reagent and measurement of activity in relative luminescence units.

The target in experiment [3] is T2, AhR (Homo sapiens, UniProt P35869).
T2 sequence (P35869 11-848): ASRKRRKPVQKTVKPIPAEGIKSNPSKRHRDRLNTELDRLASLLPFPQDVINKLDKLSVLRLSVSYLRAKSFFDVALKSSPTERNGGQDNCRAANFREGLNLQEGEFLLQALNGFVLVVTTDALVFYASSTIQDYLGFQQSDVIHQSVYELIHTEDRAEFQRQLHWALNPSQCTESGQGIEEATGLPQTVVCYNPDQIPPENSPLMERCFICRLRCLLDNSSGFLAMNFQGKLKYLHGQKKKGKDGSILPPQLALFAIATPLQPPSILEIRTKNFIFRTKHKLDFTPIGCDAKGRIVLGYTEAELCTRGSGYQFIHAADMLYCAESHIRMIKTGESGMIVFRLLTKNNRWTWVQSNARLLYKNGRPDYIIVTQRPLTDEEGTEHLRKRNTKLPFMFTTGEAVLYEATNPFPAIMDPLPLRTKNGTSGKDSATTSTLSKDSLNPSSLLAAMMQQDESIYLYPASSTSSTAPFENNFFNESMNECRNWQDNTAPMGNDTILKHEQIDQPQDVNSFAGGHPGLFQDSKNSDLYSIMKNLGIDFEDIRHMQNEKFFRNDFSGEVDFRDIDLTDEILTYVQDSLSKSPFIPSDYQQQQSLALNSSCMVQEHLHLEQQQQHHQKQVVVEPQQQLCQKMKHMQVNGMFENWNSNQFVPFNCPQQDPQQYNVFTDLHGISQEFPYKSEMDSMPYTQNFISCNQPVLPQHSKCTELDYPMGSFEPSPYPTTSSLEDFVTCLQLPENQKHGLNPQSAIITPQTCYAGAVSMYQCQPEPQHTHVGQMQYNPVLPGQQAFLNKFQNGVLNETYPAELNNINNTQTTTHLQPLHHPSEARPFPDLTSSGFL
The experiment is described as follows: AhR/arnt-luciferase reporter assay in human Huh7 cells. On the technique in general: In a reporter assay the amount or activity of a reporter protein is the signal.
Experimental: as §1

As for `O=C1/C(=C2/C(=O)N(CO)c3ccccc32)Nc2ccccc21` [Compound 8], in experiment [1], the “Disease activity index (DAI) versus placebo” value is listed as “lower disease activity index”. Besides, the EC50 was 25.6 nM at AhR [2] and 71.5 nM on AhR [3]. Also, on AhR [3] (human Huh7 and rat H4IIE cells), the “Activation of the AhR compared with equimolar synthetic indirubin” value was “activates the AhR to an equal or greater extent, and at the same or lower concentration, than an equimolar amount of synthetic indirubin”. At AhR [3] (human Huh7 cells), the “EC50 greater than the EC50 for indirubin” value is “about 20%”.
